From PubChem BioAssay AID248 (DTP/NCI, 2004) come the findings set out here.

The subject of the assay is L1210 leukemia ip in BDF1 mice, survival T/C. Description: NCI In Vivo Anticancer Drug Screen. Data for tumor model L1210 Leukemia (intraperitoneal) in B6D2F1 (BDF1) mice. Particulars: endpoint: mean survival time, higher = longer survival. In outline: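 Each compound was tested against a transplantable tumor grown in mice. The endpoint was survival, with treated animals benchmarked against vehicle controls as a simple ratio.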

Setting [1] is: dose: 100.0 mg/kg/injection, schedule: Q01DX001 (ip), vehicle: saline.
The mark [2] stands for this setting: dose: 200.0 mg/kg/injection, schedule: Q01DX001 (ip), vehicle: saline.
Setting [3] is: dose: 400.0 mg/kg/injection, schedule: Q01DX001 (ip), vehicle: saline.
Setting [4] is: dose: 100.0 mg/kg/injection, schedule: Q01DX001 (ip), vehicle: Klucel (hydroxypropylcellulose) (HPC).
Where [5] appears, read: dose: 200.0 mg/kg/injection, schedule: Q01DX001 (ip), vehicle: Klucel (hydroxypropylcellulose) (HPC).
Setting [6] is: dose: 100.0 mg/kg/injection, schedule: Q01DX009 (ip), vehicle: Klucel (hydroxypropylcellulose) (HPC).
Where [7] appears, read: dose: 200.0 mg/kg/injection, schedule: Q01DX009 (ip), vehicle: Klucel (hydroxypropylcellulose) (HPC).
The mark [8] stands for this setting: dose: 50.0 mg/kg/injection, schedule: Q01DX001 (ip), vehicle: Klucel (hydroxypropylcellulose) (HPC).
[9] abbreviates: dose: 15.0 mg/kg/injection, schedule: Q01DX Z (ip), vehicle: carboxymethylcellulose (CMC).
Setting [10] is: dose: 30.0 mg/kg/injection, schedule: Q01DX Z (ip), vehicle: carboxymethylcellulose (CMC).
The mark [11] stands for this setting: dose: 120.0 mg/kg/injection, schedule: Q01DX Z (ip), vehicle: carboxymethylcellulose (CMC).

SMILES strings stand for the structures. Where “and” joins values, the source holds several entries; their conditions need not be identical. Equal values may be shown once. Inconclusive results and toxic doses are left out.

With `C[C@]12C(=O)OC(=O)[C@H]1[C@H]1CC[C@@H]2C1`, the T/C was 110 % of control under setting [1]; 102 % of control (dose: 100.0 mg/kg/injection, schedule: Q01DX009 (ip), vehicle: acetone); 104 % of control (dose: 100.0 mg/kg/injection, schedule: Q04DX003 (ip), vehicle: acetone); 106 % of control under setting [2]; 89 % of control (dose: 200.0 mg/kg/injection, schedule: Q01DX009 (ip), vehicle: acetone); 101 % of control (dose: 200.0 mg/kg/injection, schedule: Q04DX003 (ip), vehicle: acetone). The T/C under setting [3] was 111 % of control and the T/C (dose: 400.0 mg/kg/injection, schedule: Q04DX003 (ip), vehicle: acetone) is 104 % of control.

On to `N#CCCCC[P+](c1ccccc1)(c1ccccc1)c1ccccc1`, for which the T/C was 107 % of control (dose: 25.0 mg/kg/injection, schedule: Q01DX009 (ip), vehicle: saline) and 93 % of control (dose: 50.0 mg/kg/injection, schedule: Q01DX009 (ip), vehicle: saline).

`CCOC(=O)NN(C(=O)OCC)c1c(N(C)NC(C)=O)nc(N)[nH]c1=O`: the T/C runs as follows: under setting [1], 96 % of control; under setting [2], 86 % of control; under setting [3], 96 % of control.

As to `COc1ccc(C(=O)/C=C/c2ccccc2)cc1`, the T/C by setting is: under setting [4], 102 % of control; under setting [5], 113 % of control; (dose: 400.0 mg/kg/injection, schedule: Q01DX001 (ip), vehicle: Klucel (hydroxypropylcellulose) (HPC)) 100 % of control.

As to `CSc1ccc(C)cc1C`, the T/C was 105 % of control under setting [6]; 103 % of control under setting [7]; 105 % of control (dose: 400.0 mg/kg/injection, schedule: Q01DX009 (ip), vehicle: Klucel (hydroxypropylcellulose) (HPC)).

`Cc1ccc(Cl)cc1NC(=O)Nc1ccccc1`: the T/C (dose: 0.75 mg/kg/injection, schedule: Q01DX009 (ip), vehicle: Klucel (hydroxypropylcellulose) (HPC)) is 92 % of control; the T/C (dose: 1.5 mg/kg/injection, schedule: Q01DX009 (ip), vehicle: Klucel (hydroxypropylcellulose) (HPC)) is 90 % of control; the T/C (dose: 3.0 mg/kg/injection, schedule: Q01DX009 (ip), vehicle: Klucel (hydroxypropylcellulose) (HPC)) was 94 % of control and 90 % of control; the T/C (dose: 100.0 mg/kg/injection, schedule: Q04DX003 (ip), vehicle: Klucel (hydroxypropylcellulose) (HPC)) is 90 % of control; the T/C (dose: 200.0 mg/kg/injection, schedule: Q04DX003 (ip), vehicle: Klucel (hydroxypropylcellulose) (HPC)) is 90 % of control; the T/C (dose: 400.0 mg/kg/injection, schedule: Q04DX003 (ip), vehicle: Klucel (hydroxypropylcellulose) (HPC)) was 87 % of control.

As for `O=C(O)c1sccc1-c1cccc2ccccc12`, the T/C under setting [8] is 94 % of control, the T/C under setting [4] was 96 % of control and the T/C under setting [5] is 94 % of control.

In the case of `CC1=CC2C(C3C=CC2(C)C(=O)C3(C)Cc2ccccc2)C(C)(Cc2ccccc2)C1=O` (stereo not given), the T/C (dose: 50.0 mg/kg/injection, schedule: Q01DX009 (ip), vehicle: Klucel (hydroxypropylcellulose) (HPC)) was 94 % of control; the T/C (dose: 75.0 mg/kg/injection, schedule: Q01DX001 (ip), vehicle: Klucel (hydroxypropylcellulose) (HPC)) was 100 % of control; the T/C under setting [6] was 96 % of control; the T/C (dose: 150.0 mg/kg/injection, schedule: Q01DX001 (ip), vehicle: Klucel (hydroxypropylcellulose) (HPC)) is 99 % of control; the T/C under setting [7] is 93 % of control; the T/C (dose: 300.0 mg/kg/injection, schedule: Q01DX001 (ip), vehicle: Klucel (hydroxypropylcellulose) (HPC)) was 96 % of control.

For `CCOC(C)C(/C=N/NC(N)=S)=NNC(N)=S` (stereo not given), the T/C by setting is: (dose: 15.0 mg/kg/injection, schedule: Q01DX010 (ip), vehicle: saline) 95 % of control; under setting [9], 101 % of control; (dose: 30.0 mg/kg/injection, schedule: Q01DX010 (ip), vehicle: saline) 89 % of control; under setting [10], 95 % of control; (dose: 60.0 mg/kg/injection, schedule: Q01DX010 (ip), vehicle: saline) 92 % of control; (dose: 60.0 mg/kg/injection, schedule: Q01DX Z (ip), vehicle: carboxymethylcellulose (CMC)) 100 % of control and 102 % of control. Further, the T/C is, setting by setting: (dose: 60.0 mg/kg/injection, schedule: Q01DX Z (oral), vehicle: carboxymethylcellulose (CMC)) 100 % of control; under setting [11], 93 % of control and 103 % of control; (dose: 120.0 mg/kg/injection, schedule: Q01DX Z (oral), vehicle: carboxymethylcellulose (CMC)) 106 % of control; (dose: 240.0 mg/kg/injection, schedule: Q01DX Z (oral), vehicle: carboxymethylcellulose (CMC)) 93 % of control.

Consider `O=C(Nc1cccc(C(=O)Nc2ccc(C3=NCCN3)cc2)c1)c1ccc(C2=NCCN2)cc1`, for which the T/C by setting is: under setting [9], 96 % of control; (dose: 15.0 mg/kg/injection, schedule: Q01DX Z (sc), vehicle: saline) 120 % of control; under setting [10], 120 % of control; (dose: 60.0 mg/kg/injection, schedule: Q01DX Z (sc), vehicle: saline) 109 % of control; (dose: 62.5 mg/kg/injection, schedule: Q01DX010 (oral), vehicle: saline) 104 % of control; (dose: 88.0 mg/kg/injection, schedule: Q01DX007 (oral), vehicle: carboxymethylcellulose (CMC)) 101 % of control. The T/C reads like this: under setting [11], 185 % of control; (dose: 120.0 mg/kg/injection, schedule: Q01DX Z (sc), vehicle: saline) 230 % of control; (dose: 125.0 mg/kg/injection, schedule: Q01DX010 (oral), vehicle: saline) 104 % of control; (dose: 175.0 mg/kg/injection, schedule: Q01DX007 (oral), vehicle: carboxymethylcellulose (CMC)) 97 % of control; (dose: 250.0 mg/kg/injection, schedule: Q01DX010 (oral), vehicle: saline) 103 % of control; (dose: 350.0 mg/kg/injection, schedule: Q01DX007 (oral), vehicle: carboxymethylcellulose (CMC)) 105 % of control. Besides, the T/C was 106 % of control (dose: 500.0 mg/kg/injection, schedule: Q01DX010 (oral), vehicle: saline) and 105 % of control (dose: 700.0 mg/kg/injection, schedule: Q01DX007 (oral), vehicle: carboxymethylcellulose (CMC)).

`C[C@@H]1CCC[C@@H](NC(=O)N(CCCl)N=O)C1`: the T/C (dose: 6.7 mg/kg/injection, schedule: Q01DX001 (ip), vehicle: saline with Tween-80) was 108 % of control; the T/C (dose: 10.0 mg/kg/injection, schedule: Q01DX001 (ip), vehicle: saline with Tween-80) is 113 % of control; the T/C (dose: 15.0 mg/kg/injection, schedule: Q01DX001 (ip), vehicle: saline with Tween-80) was 124 % of control; the T/C (dose: 18.7 mg/kg/injection, schedule: Q01DX009 (ip), vehicle: Klucel (hydroxypropylcellulose) (HPC)) was 188 % of control; the T/C (dose: 34.0 mg/kg/injection, schedule: Q01DX001 (ip), vehicle: saline with Tween-80) was 166 % of control; the T/C (dose: 37.5 mg/kg/injection, schedule: Q01DX009 (ip), vehicle: Klucel (hydroxypropylcellulose) (HPC)) is 328 % of control. For the same molecule, the T/C (dose: 50.0 mg/kg/injection, schedule: Q01DX001 (ip), vehicle: saline with Tween-80) was 293 % of control; the T/C (dose: 75.0 mg/kg/injection, schedule: Q01DX001 (ip), vehicle: saline with Tween-80) is 484 % of control; the T/C (dose: 75.0 mg/kg/injection, schedule: Q01DX009 (ip), vehicle: Klucel (hydroxypropylcellulose) (HPC)) is 198 % of control; the T/C (dose: 112.0 mg/kg/injection, schedule: Q01DX001 (ip), vehicle: saline with Tween-80) was 444 % of control; the T/C (dose: 150.0 mg/kg/injection, schedule: Q01DX009 (ip), vehicle: Klucel (hydroxypropylcellulose) (HPC)) is 106 % of control; the T/C (dose: 168.0 mg/kg/injection, schedule: Q01DX001 (ip), vehicle: saline with Tween-80) is 434 % of control.

In the case of `CC1(C)CCC2=C(O1)c1ccccc1C(=O)C2=O`, the T/C (dose: 25.0 mg/kg/injection, schedule: Q01DX001 (ip), vehicle: Klucel (hydroxypropylcellulose) (HPC)) was 102 % of control; the T/C under setting [8] was 98 % of control; the T/C under setting [4] is 94 % of control and 102 % of control.

On to `CC(O)(c1ccncc1)c1cc2ccccc2n1S(=O)(=O)c1ccccc1` (stereo not given), for which the T/C runs as follows: (dose: 100.0 mg/kg/injection, schedule: Q04DX002 (ip), vehicle: Klucel (hydroxypropylcellulose) (HPC)) 95 % of control; (dose: 200.0 mg/kg/injection, schedule: Q04DX002 (ip), vehicle: Klucel (hydroxypropylcellulose) (HPC)) 87 % of control.
